Source: patent US20060159777A1, “Aqueous acaricidal solution” (SOLVAY (SOCIETE ANONYME), priority 2002, published 2006)
Like-named read-outs stand apart in the source and are kept apart here.

Experiments:
[1] = tested on: dermatophagoides pteronyssinus
Method: Acarids (dermatophagoides pteronyssinus) originating from a laboratory strain raised on a substrate consisting of a 50/50 (mass/mass) mixture of wheatgerm and of brewer's yeast as flakes calibrated by sieving (fragments of less than 1 mm in size) were used. The temperature was between 23 and 25° C. and the relative humidity was maintained at 75% by placing in the presence of a saturated aqueous ammonium sulphate solution ([NH4)2SO4]); the strain was conserved in the dark.
Pieces of standard cotton wool (150 g/m^2) were pre-infested with approximately 200 acarids of all stages.
The pieces of cotton wool were then treated by sprinkling with an aqueous solution obtained by mixing 10, 30 or 50 g/l of sodium bicarbonate into water.
Two rates of application of the solution were used: 30 and 50 ml/m^2.
The sodium bicarbonate solution was sprayed and projected evenly and precisely over the cotton wool surfaces.
The mortality of the acarids was noted after 15 min, 1 h, 2 h, 4 h and 24 h.
A control batch of acarids was monitored in parallel so as to determine the natural mortality of the acarids subjected to spraying with the same volume of water.
Each experimental series was repeated three times and the means of the mortality results obtained were taken.

[2] = tested on: dermatophagoides pteronyssinus; conditions: approximately 200 acarids deposited
Method: The procedure was carried out as in example 1, except that the acaricidal aqueous solution was not applied by sprinkling, but the pieces of standard cotton wool (150 g/m^2) were immersed in baths of sodium bicarbonate solution.
Three sodium bicarbonate concentrations were used: 10, 30 and 50 g/l.
After drying of the textiles, approximately 200 acarids of all stages were deposited thereon and the acarid mortality was measured as a function of time.
The acarid mortality was noted after 3 and 6 weeks.
Each experimental series was also repeated three times and the means of the mortality results obtained were taken.

SMILES: O=C([O-])O.[Na+] [Sodium bicarbonate, sodium bicarbonate]
- % mortality ([1]; 10 g bicarb/1, 30 ml/m^2 (0.3 g bicarb/m^2), contact time 15 minutes): 0.0%
- % mortality ([1]; 10 g bicarb/1, 30 ml/m^2 (0.3 g bicarb/m^2), contact time 1 hour): 0.0%
- % mortality ([1]; 10 g bicarb/1, 30 ml/m^2 (0.3 g bicarb/m^2), contact time 2 hours): 0.2%
- % mortality ([1]; 10 g bicarb/1, 30 ml/m^2 (0.3 g bicarb/m^2), contact time 4 hours): 0.5%
- % mortality ([1]; 10 g bicarb/1, 30 ml/m^2 (0.3 g bicarb/m^2), contact time 24 hours): 18.5%
- % mortality ([1]; 10 g bicarb/1, 50 ml/m^2 (0.5 g bicarb/m^2), contact time 15 minutes): 0.0%
- % mortality ([1]; 10 g bicarb/1, 50 ml/m^2 (0.5 g bicarb/m^2), contact time 1 hour): 0.0%
- % mortality ([1]; 10 g bicarb/1, 50 ml/m^2 (0.5 g bicarb/m^2), contact time 2 hours): 2.1%
- % mortality ([1]; 10 g bicarb/1, 50 ml/m^2 (0.5 g bicarb/m^2), contact time 4 hours): 20.9%
- % mortality ([1]; 10 g bicarb/1, 50 ml/m^2 (0.5 g bicarb/m^2), contact time 24 hours): 35.8%
- % mortality ([1]; 30 g bicarb/1, 30 ml/m^2 (0.9 g bicarb/m^2), contact time 15 minutes): 0.0%
- % mortality ([1]; 30 g bicarb/1, 30 ml/m^2 (0.9 g bicarb/m^2), contact time 1 hour): 0.0%
- % mortality ([1]; 30 g bicarb/1, 30 ml/m^2 (0.9 g bicarb/m^2), contact time 2 hours): 0.0%
- % mortality ([1]; 30 g bicarb/1, 30 ml/m^2 (0.9 g bicarb/m^2), contact time 4 hours): 0.7%
- % mortality ([1]; 30 g bicarb/1, 30 ml/m^2 (0.9 g bicarb/m^2), contact time 24 hours): 19.7%
- % mortality ([1]; 30 g bicarb/1, 50 ml/m^2 (1.5 g bicarb/m^2), contact time 15 minutes): 0.0%
- % mortality ([1]; 30 g bicarb/1, 50 ml/m^2 (1.5 g bicarb/m^2), contact time 1 hour): 0.0%
- % mortality ([1]; 30 g bicarb/1, 50 ml/m^2 (1.5 g bicarb/m^2), contact time 2 hours): 3.4%
- % mortality ([1]; 30 g bicarb/1, 50 ml/m^2 (1.5 g bicarb/m^2), contact time 4 hours): 25.1%
- % mortality ([1]; 30 g bicarb/1, 50 ml/m^2 (1.5 g bicarb/m^2), contact time 24 hours): 39.9%
- % mortality ([1]; 50 g bicarb/1, 30 ml/m^2 (1.5 g bicarb/m^2), contact time 15 minutes): 0.0%
- % mortality ([1]; 50 g bicarb/1, 30 ml/m^2 (1.5 g bicarb/m^2), contact time 1 hour): 0.0%
- % mortality ([1]; 50 g bicarb/1, 30 ml/m^2 (1.5 g bicarb/m^2), contact time 2 hours): 0.0%
- % mortality ([1]; 50 g bicarb/1, 30 ml/m^2 (1.5 g bicarb/m^2), contact time 4 hours): 5.2%
- % mortality ([1]; 50 g bicarb/1, 30 ml/m^2 (1.5 g bicarb/m^2), contact time 24 hours): 88.0%
- % mortality ([1]; 50 g bicarb/1, 50 ml/m^2 (2.5 g bicarb/m^2), contact time 15 minutes): 0.0%
- % mortality ([1]; 50 g bicarb/1, 50 ml/m^2 (2.5 g bicarb/m^2), contact time 1 hour): 0.0%
- % mortality ([1]; 50 g bicarb/1, 50 ml/m^2 (2.5 g bicarb/m^2), contact time 2 hours): 2.8%
- % mortality ([1]; 50 g bicarb/1, 50 ml/m^2 (2.5 g bicarb/m^2), contact time 4 hours): 58.9%
- % mortality ([1]; 50 g bicarb/1, 50 ml/m^2 (2.5 g bicarb/m^2), contact time 24 hours): 95.7%
- Survivors ([2]; immersion bath 10 g/l, after 3 weeks): 212.8
- Survivors ([2]; immersion bath 10 g/l, after 6 weeks): 818.3
- Survivors ([2]; immersion bath 30 g/l, after 3 weeks): 153.5
- Survivors ([2]; immersion bath 30 g/l, after 6 weeks): 245.0
- Survivors ([2]; immersion bath 50 g/l, after 3 weeks): 53.5
- Survivors ([2]; immersion bath 50 g/l, after 6 weeks): 143.0
